Measurements taken from BindingDB's records for doi:10.1021/jm00034a016 (Merck Research Laboratories, 1994).

target: T1, Dimer of Gag-Pol polyprotein [489-587] (Human immunodeficiency virus 1, UniProt P12497); assay: Protease Inhibition Assay; settings: pH 5.5; 30 °C
T1 construct: 489-587
Procedure: The IC50 values for the compounds were determined using purified HIV-1 Protease. Inhibition of the cleavage of the peptide H-Val-Ser-Gln-Asn-(L-beta-napthylalanine)-Pro-Ile-Val-OH was assessed at 30 °C, pH = 5.5 with [Enzyme] = 30 pM for 1 h, using HPLC with UV detection for quantification of the products. For the IC50 data a substrate concentration of 0.4 mg/mL was used, and data was fit to a four parameter sigmoidal equation.

| Structure (SMILES) | IC50 |
| --- | --- |
| C[C@@H]1[C@H](OC(=O)N[C@@H](Cc2ccccc2)[C@H](O)CN2C[C@H]3CCCC[C@H]3C[C@H]2C(=O)NC(C)(C)C)CCS1(=O)=O [N-tert-butyldecahydro-2-[2(R)-hydroxy-4-phenyl-3(S)-[[[[4 (S)-methyl-(3 R)-l , l-dioxotetrahydrothiophene-3-yl]-oxy]carbonyl]amino]butyl]-(4aS,8aS)-isoquinoline-3(S)-carboxamide] | 22.3 nM |
| C[C@H]1[C@@H](OC(=O)N[C@@H](Cc2ccccc2)[C@H](O)CN2C[C@H]3CCCC[C@H]3C[C@H]2C(=O)NC(C)(C)C)CCS1(=O)=O [N-tert-butyldecahydro-2-[2(R)-hydroxy-4-phenyl-3(S)-[[[[2 (S)-methyl-(3 S)-l , l-dioxotetrahydrothiophene-3-yl]-oxy]carbonyl]amino]butyl]-(4aS,8aS)-isoquinoline-3(S)-carboxamide] | 11.4 nM |
| C[C@H]1OCC[C@H]1OC(=O)N[C@@H](Cc1ccccc1)[C@H](O)CN1C[C@H]2CCCC[C@H]2C[C@H]1C(=O)NC(C)(C)C [Isoquinoline furanyl urethane analog] | 169 nM |
| C[C@@H]1OCC[C@@H]1OC(=O)N[C@@H](Cc1ccccc1)[C@H](O)CN1C[C@H]2CCCC[C@H]2C[C@H]1C(=O)NC(C)(C)C [(2S,3S)-2-methyloxolan-3-yl N-[(2S,3R)-4-[(3S,4aS,8aS)-3-(tert-butylcarbamoyl)-decahydroisoquinolin-2-yl]-3-hydroxy-1-phenylbutan-2-yl]carbamate] | 52.4 nM |
